The text below walks through data of patent EP0384380A2, “Novel peptide derivatives and their pharmaceutical use” (JAPAN TOBACCO INC., priority 1989, dated 1990).

What all share (assay type): in vivo
The test system of test [1] is ICR male mice. Briefly: Anti-reserpine action (antagonistic action against hypothermia). To be noted: SC, mice given reserpine 5 mg/kg s.c., test compound 3 or 3.5 hours later, estimated from regression line; for ED (1 degC rise in body temperature): Mus musculus, 2 h, read-out: Concentration of test compound necessary for raising body temperature by 1 °C on the average for 120 minutes. The procedure:
Anti-reserpine action (Antagonistic action against hypothermia)
ICR male mice weighing 35 - 40 g were subcutaneously administered with reserpine at the dose of 5 mg/kg. About 2 hours later, each of the mice was held by a mouse-holder, and a body temperature sensor was intrarectally inserted. Thereafter, the body temperature was automatically measured every 10 minutes. The test compound dissolved in saline was subcutaneously administered 3 or 3.5 hours after administration of reserpine. After the administration of the test compound, the body temperature was measured every 10 minutes over the period of 120 minutes. The area below the body temperature line during the period was calculated, from which the regression line was estimated based upon least square method, and estimated was the amount of the test compound necessary for raising the body temperature by 1 °C on the average for 120 minutes from that just before the administration of the test compound (Table 1).

The test system of test [2] is ICR male mice. Put plainly: Anti-chlorpromazine action (locomotor stimulant action). To be noted: SC, mice given chlorpromazine HCl 5 mg/kg s.c., test compound one hour later, estimated from regression line; for ED (3000 locomotor counts): Mus musculus, 2 h, read-out: Concentration of test compound necessary for inducing 3000 count of automatism quantity in 2 hours. The procedure: Anti-chlorpromazine action (Locomotor stimulant action)
ICR male mice weighing 35 - 40 g (four animals per group) were subcutaneously administered with chlorpromazine HCI at the dose of 5 mg/kg and immediately set in the automatic locomotor-measuring apparatus (AUTOMEX). One hour later, the test compound dissolved in saline was subcutaneously administered, and the locomotor activity was measured every 15 minutes for 120 minutes. The total locomotor activity during the period of 120 minutes was calculated and the regression line was estimated based on the method of least squares, from which the amount of the test compound necessary for inducing 3000 locomotor-count was estimated (Table 2).

Another test concerns Wistar male rats. Put plainly: Flexor reflex in spinalized rats. The arrangement: key to Area below the reflex amplitude linking line: area under % amplitude vs. time line over 60 min (pre-dose = 100%). To be noted: pre-dose amplitude = 100%; for response vs control in vivo at 0.1 mg/kg / response vs control in vivo at 0.3 mg/kg: Rattus norvegicus; for Area below the reflex amplitude linking line: covering 60 minutes. The procedure: Flexor reflex in spinalized rats
Wistar male rats (weighing 450 - 520 g) were anesthetized with ether, and the cervical part of spinal cord was exposed, into which a tracheal cannula was inserted. The vagus nerves were severed bilaterally at the cervical region. Thereafter, the cervical vertebra C1 segment was transected, and rapidly, artificial ventilation was given with the use of an artificial respirator (Shinano Factory 60 rpm. 4 ml/stroke). The rat was placed on a thermostated apparatus in which water thermostated at 37 C was circulated and fixed thereto at forelimbs, right hindlimb, tooth and tail. A venous cannula was inserted into the femoral vein in the right hindlimb and two needle electrodes were subcutaneously inserted into the left skin of the toe, and a piece of thread was attached to the limb with the edge of the thread bonded to a force-displacement - transducer. Tension of about 5 g was applied to the thread. Through the elctrodes, electric stimuli of 50 - 100 V were applied once per 30 seconds. The flexor reflex was recorded on the polygraph via a force-displacement transducer. After the reaction became constant in about one-hours' lapse for stabilization, the test compound dissolved in saline was intravenously administered. Thereafter, the reaction was recorded for 1 hour. In the data, taking the mean of the three reactions just before administration of the test compound for 100%, the reflex amplitude at 1-, 3-, 5-, 8-, 10-, 15-, 20-, 30-, 40-, 50- and 60- minutes' lapse after administration of the test compound were calculated. In Table 3, there are shown calculated area below the straight line linking the obtained reflex amplitude at the respective above-mentioned time covering 60 minutes in the case of administration of each test compounds at the dose of 0.1 mg/kg, and the reflex amplitude at 10- and 60-minutes' lapse after administration (Table 3).

[3] abbreviates: 10 min, intravenous administration at the dose of 0.1 mg/kg, read-out: Reflex amplitude (%) 10 min. after.
[4] abbreviates: 10 min, intravenous administration at the dose of 0.3 mg/kg (footnote *), read-out: Reflex amplitude (%) 10 min. after.
Where [5] appears, read: intravenous administration at the dose of 0.1 mg/kg.
The mark [6] stands for this setting: intravenous administration at the dose of 0.3 mg/kg (footnote *).
The mark [7] stands for this setting: 1 h, intravenous administration at the dose of 0.1 mg/kg, read-out: Reflex amplitude (%) 60 min. after.

Where two headings read alike, the source gives them in different places.

Consider `C[C@H]1CC(=O)C[C@H]1C(=O)N[C@@H](Cc1c[nH]cn1)C(=O)N1CCC[C@H]1C(N)=O` (mixture of isomers) [Compound 19, N^α-(cis-2-Methyl-4-oxocyclopentanecarbonyl)-L-histidyl-L-prolinamide], for which, in the test with ICR male mice [1], the ED (1 degC rise in body temperature) was 0.14 mg/kg. In addition, in the test with ICR male mice [2], the ED (3000 locomotor counts) is 0.54 mg/kg. Also, the response vs control in vivo at 0.1 mg/kg in the test on Wistar male rats (setting [3]) came out at 138%. The response vs control in vivo at 0.3 mg/kg with Wistar male rats (setting [4]) stood at 250%. Also, the results for the “Area below the reflex amplitude linking line” value in the test on Wistar male rats (setting [5]) and in the test with Wistar male rats (setting [6]) were 11860 and 19114, respectively.

As for `C[C@@H]1CC(=O)C[C@H]1C(=O)N[C@@H](Cc1c[nH]cn1)C(=O)N1CCC[C@H]1C(N)=O` (mixture of isomers) [Compound 20, N^α-(trans-2-Methyl-4-oxocyclopentanecarbonyl)-L-histidyl-L-prolinamide], the ED (1 degC rise in body temperature) with ICR male mice [1] is 0.27 mg/kg. In addition, the ED (3000 locomotor counts) in the test with ICR male mice [2] was 1.3 mg/kg. Further, the response vs control in vivo at 0.1 mg/kg with Wistar male rats (setting [3]) was 105%. Moreover, in the test with Wistar male rats (setting [4]), the response vs control in vivo at 0.3 mg/kg was 129%. Further, the “Area below the reflex amplitude linking line” value with Wistar male rats (setting [5]) was 6317; with Wistar male rats (setting [6]), 10355.

Consider `NC(=O)[C@@H]1CCCN1C(=O)[C@H](Cc1c[nH]cn1)NC(=O)[C@H]1NC(=O)C[C@@H]1c1ccccc1` (relative stereo) [Compound 10, N^a-(trans-3-Phenylpyroglutamyl)-L-histidyl-L-prolinamide], for which, in the test with ICR male mice [1], the “Concentration of test compound necessary for raising body temperature by 1 °C on the average for 120 minutes” value is 0.53 mg/kg. Also, the “Concentration of test compound necessary for inducing 3000 count of automatism quantity in 2 hours” value with ICR male mice [2] is on record as 1.89 mg/kg. Moreover, in the test with Wistar male rats (setting [5]), the “Area below the reflex amplitude linking line” value is listed as 16593, the “Reflex amplitude (%) 10 min. after” value came to 242.7% and the “Reflex amplitude (%) 60 min. after” value turned out to be 329.2%.

On to `NC(=O)[C@@H]1CCCN1C(=O)[C@H](Cc1c[nH]cn1)NC(=O)[C@H]1NC(=O)C[C@H]1c1ccccc1` (relative stereo) [Compound 11, N^α-(cis-3-Phenylpyroglutamyl)-L-histidyf-L-prolinamide], for which the “Concentration of test compound necessary for raising body temperature by 1 °C on the average for 120 minutes” value in the test with ICR male mice [1] is reported as 0.28 mg/kg. Besides, the “Concentration of test compound necessary for inducing 3000 count of automatism quantity in 2 hours” value with ICR male mice [2] is given as 1.89 mg/kg. In addition, in the test with Wistar male rats (setting [5]), the “Area below the reflex amplitude linking line” value was 11321, the “Reflex amplitude (%) 10 min. after” value is on record as 140.4% and the “Reflex amplitude (%) 60 min. after” value is 240.8%.

For `C[C@@H]1CC(=O)N[C@@H]1C(=O)N[C@@H](Cc1c[nH]cn1)C(=O)N1CCC[C@H]1C(N)=O` [Compound 1, N^α-(cis-3-Methylpyroglutamyt)-L-histidyl-L-prolinamide], the ED (1 degC rise in body temperature) with ICR male mice [1] is 0.3 mg/kg. Also, in the test with ICR male mice [2], the ED (3000 locomotor counts) is 0.51 mg/kg. The response vs control in vivo at 0.1 mg/kg in the test with Wistar male rats (setting [3]) was 159%. Further, in the test on Wistar male rats (setting [5]), the “Area below the reflex amplitude linking line” value is reported as 12970.

Consider `C[C@H]1CC(=O)N[C@@H]1C(=O)N[C@@H](Cc1c[nH]cn1)C(=O)N1CCC[C@H]1C(N)=O` [Compound 2, N^α-(trans-3-Methylpyroglutamyl)-L-histidyl-L-prolinamide], for which the ED (1 degC rise in body temperature) in the test with ICR male mice [1] was 1.11 mg/kg. In addition, the ED (3000 locomotor counts) in the test on ICR male mice [2] is 12.9 mg/kg. In the test on Wistar male rats (setting [3]), the response vs control in vivo at 0.1 mg/kg was found to be 126%. The “Area below the reflex amplitude linking line” value with Wistar male rats (setting [5]) worked out at 7077.

In the case of `C[C@@H]1CC(=O)N[C@@H]1C(=O)N[C@@H](Cc1c[nH]cn1)C(=O)N1CSC[C@H]1C(N)=O` [Compound 3, 3-[N^α-(cis-3-Methylpyroglutamyt)-L-histidyl]-L-thiazolidine-4-carboxamide], the ED (1 degC rise in body temperature) in the test with ICR male mice [1] was 0.2 mg/kg. Also, the ED (3000 locomotor counts) in the test with ICR male mice [2] is 0.47 mg/kg. Besides, the response vs control in vivo at 0.1 mg/kg is 190% in the test with Wistar male rats (setting [3]) and 278% with Wistar male rats (setting [7]). The “Area below the reflex amplitude linking line” value in the test with Wistar male rats (setting [5]) was determined as 13811.

On to `C[C@H]1CC(=O)N[C@@H]1C(=O)N[C@@H](Cc1c[nH]cn1)C(=O)N1CSC[C@H]1C(N)=O` [Compound 4, 3-[N^α-(trans-3-Methylpyroglutamyl)-L-histidyl]-L-thiazolidine-4-carboxamide], for which the ED (1 degC rise in body temperature) with ICR male mice [1] was 0.34 mg/kg. Further, the ED (3000 locomotor counts) in the test with ICR male mice [2] was 0.63 mg/kg. In addition, the response vs control in vivo at 0.1 mg/kg was found to be 143% in the test with Wistar male rats (setting [3]) and 164% in the test with Wistar male rats (setting [7]). The “Area below the reflex amplitude linking line” value in the test with Wistar male rats (setting [5]) is reported as 9404.

On to `C[C@@H]1CC(=O)O[C@@H]1C(=O)N[C@@H](Cc1c[nH]cn1)C(=O)N1CCC[C@H]1C(N)=O` [Compound 5, N^α-[(2S,3R)-Tetrahydro-3-methyl-5-oxo-2-furancarbonyl]-L-histidyl-L-prolinamide], for which, in the test on ICR male mice [1], the ED (1 degC rise in body temperature) was 0.12 mg/kg. Also, the ED (3000 locomotor counts) with ICR male mice [2] was 0.7 mg/kg. Further, in the test with Wistar male rats (setting [3]), the response vs control in vivo at 0.1 mg/kg was 132%. Moreover, in the test with Wistar male rats (setting [5]), the “Area below the reflex amplitude linking line” value stood at 9221.

Regarding `NC(=O)[C@@H]1CCCN1C(=O)[C@H](Cc1c[nH]cn1)NC(=O)C1CCC(=O)C1` (stereo partly drawn) [Compound 13, N^α-(3-Oxocyclopentanecarbonyl)-L-histidyl-L-prolinamide], in the test on ICR male mice [1], the ED (1 degC rise in body temperature) is 0.71 mg/kg. The ED (3000 locomotor counts) in the test on ICR male mice [2] was 1.03 mg/kg. The response vs control in vivo at 0.1 mg/kg in the test with Wistar male rats (setting [3]) stood at 110%. Also, the “Area below the reflex amplitude linking line” value with Wistar male rats (setting [5]) is listed as 8572.

In the case of `NC(=O)[C@@H]1CCCN1C(=O)[C@H](Cc1c[nH]cn1)NC(=O)[C@@H]1CCC(=O)C1` [Compound 16, N^a-[(1 R)-3-Oxocyclopentanecarbonyl]-L-histidyl-L-prolinamide], the ED (1 degC rise in body temperature) with ICR male mice [1] is 0.12 mg/kg. Further, in the test on ICR male mice [2], the ED (3000 locomotor counts) is 0.88 mg/kg. Also, in the test on Wistar male rats (setting [3]), the response vs control in vivo at 0.1 mg/kg stood at 152%. In addition, in the test on Wistar male rats (setting [5]), the “Area below the reflex amplitude linking line” value came to 12016.

On to `CC1(C)CC(=O)CC1C(=O)N[C@@H](Cc1c[nH]cn1)C(=O)N1CCC[C@H]1C(N)=O` (stereo partly drawn) [Compound 21, N^α-(2,2-Dimethyl-4-oxocyclopentanecarbonyl)-L-histidyl-L-prolinamide], for which, in the test on ICR male mice [1], the ED (1 degC rise in body temperature) is 0.18 mg/kg. Besides, in the test on ICR male mice [2], the ED (3000 locomotor counts) was 0.83 mg/kg. Besides, the response vs control in vivo at 0.1 mg/kg in the test on Wistar male rats (setting [3]) was determined as 115%. Further, the response vs control in vivo at 0.3 mg/kg in the test on Wistar male rats (setting [4]) is 170%. Besides, the “Area below the reflex amplitude linking line” value with Wistar male rats (setting [5]) worked out at 7186; with Wistar male rats (setting [6]), 14294.

Regarding `NC(=O)C1CCCN1C(=O)C(Cc1c[nH]cn1)NC(=O)C1CCC(=O)O1` (centres unmarked) [DN1417, reference compound], the ED (1 degC rise in body temperature) in the test on ICR male mice [1] was 2.06 mg/kg. Moreover, the ED (3000 locomotor counts) with ICR male mice [2] was 4.34 mg/kg. Further, the response vs control in vivo at 0.3 mg/kg with Wistar male rats (setting [4]) is 114%; in the test on Wistar male rats (1 h, intravenous administration at the dose of 0.3 mg/kg (footnote *), read-out: Reflex amplitude (%) 60 min. after), 163%. Besides, the “Area below the reflex amplitude linking line” value in the test on Wistar male rats (setting [6]) turned out to be 8152.

For `NC(=O)[C@@H]1CCCN1C(=O)[C@H](Cc1c[nH]cn1)NC(=O)[C@@H]1CCC(=O)N1` [TRH, L-pyroglutamyl-L-histidyl-L-prolinamide, reference compound], in the test with ICR male mice [2], the ED (3000 locomotor counts) is 6.82 mg/kg. For the same molecule, the response vs control in vivo at 0.1 mg/kg in the test with Wistar male rats (setting [3]) stood at 118%.
